Key:
[1] = system: hematopoietic stem cells; assay: Competitive transplantation of mobilized peripheral blood to measure stem cell frequency (donor chimerism); format: in vivo, mice
Method: Transplantations/Competitive transplantations. BM cells were harvested and pooled from the tibia and the femur of 6-8 week old mice (donor) as well as B6.5JL(BoyJ) (competitor) mice. […] BM cells were subsequently transplanted into the retro-orbital sinus in a volume of 200 μA in IMDM/2% FCS.
Flow cytometry. Immunostaining and flow cytometry analyses were performed according to standard procedures and analyzed on a FacsCanto flow cytometer (BD Biosciences). Anti-Ly5.2 (clone 104, BD Biosciences, FITC conjugated) and anti-Ly5.1 (clone A20, BD Biosciences, PE conjugated) monoclonal antibodies were used to distinguish donor from recipient and competitor cells. For lineage analysis in hematopoietic tissues, anti-CD3ε (clone 145-2C11, PE-Cy7 conjugated), anti-B220 (clone RA3-6B2, APC conjugated), anti-CD11b (clone M1/70, APC-Cy7 conjugated) and anti-Gr-1 (clone RB6-8C5, APC-Cy7 conjugated, all from BD Biosciences) were used.

[2] = system: Rac2; assay: Rho-GTPase effector domain pull-down assay, Rac2; set-up: species or system mice; conditions: in vivo in G-CSF treated animals (data not shown)
Method: (§1) Rho-GTPase effector domain pull-down assays. Relative levels of GTP-bound RAC1, RAC2 and CDC42 were determined by an effector pull-down assay. Briefly, low density bone marrow cells (1×107) were lysed in a Mg2+ lysis/wash buffer (Upstate cell signaling solutions) containing 10% glycerol, 25 mM sodium fluoride, 1 mM sodium orthovanadate and a protease inhibitor cocktail (Roche Diagnostics). Samples were incubated with PAK-1 binding domain/agarose beads and bound (activated) as well as unbound (non-activated) Rho GTPases were probed by immunoblotting with antibodies specific for RAC1 (Upstate), RAC2 (Novus Biologicals) and CDC42 (BD Biosciences). Activated protein was normalized to total protein and β-actin (Sigma) and the relative amount was quantified by densitometry.

[3] = system: BM derived progenitor cells adhering to FBMD-1 stromal cells; assay: CAFC progenitor adhesion assay on FBMD-1 stroma; format: cell-based, mice; conditions: BM derived HSPCs from G-CSF treated animals
Method: CAFC progenitor adhesion assays. FBMD-1 cells were seeded in IMDM supplemented with 15% FCS and 5% horse serum (Gibco) at a density of 1000 cells per well in a 96 well plate. BM cells were plated onto the FBMD-1 stroma cell line at 3000, 1500, 750 and 375 cells per well at 15 wells per cell concentration in CAFC medium (IMDM, supplemented with 20% horse serum (Gibco) and 10^−5 M hydrocortisone (Sigma)). To determine progenitor cell adhesion, non-adherent cells were washed off the FBMD-1 stroma after 2 hours and fresh CAFC medium was added to each well. The frequency of total HSPCs and adherent HSPCs was determined by counting the frequency of cobblestone areas at day 7 on the FBMD-1 stroma cell line.

[4] = system: Rac1; assay: Rho-GTPase effector domain pull-down assay, Rac1; set-up: species or system mice; conditions: in vivo in G-CSF treated animals (data not shown)
Method: as §1

[5] = system: Cdc42; assay: Rho-GTPase effector domain pull-down assay, Cdc42; format: in vivo, mice; conditions: for Cdc42 activity (GTP-bound form) in BM cells: in vivo in G-CSF treated animals, compared to G-CSF treatment alone (FIG. 7c, 7d)
Method: as §1

[6] = system: hematopoietic stem and progenitor cells (HSPCs); assay: G-CSF induced HSPC mobilization, colony forming cell (CFC) assay of peripheral blood; format: in vivo, mice
Method: As mobilization efficiency of HSPC is a quantitative trait, quantitative trait locus (QTL) analysis was chosen as an approach to identify regulators of mobilization efficiency. Mice were mobilized with huG-CSF (Amgen) at 12.5 μg/ml in PBS/0.1% BSA and administered i.p. at 100 μg/kg/day once a day for 5 days and animals were analyzed on day 6. Murine recombinant EGF (0.2-3.6 μg/g) (Prepro tech, Rocky Hill, N.J.) was dissolved in PBS and administered i.p. on the last day of the G-CSF regimen. Erlotinib (2.5-100 mg/kg) was dissolved in methylcellulose and administered by gavage on day 3, 4, and 5 of the G-CSF regimen. A specific Cdc42 inhibitor (0.5 mg/ml) was dissolved in PBS containing 15% ethanol and administered by tail vain 18 h after the last G-CSF injection. Mobilization efficiency was determined with HSPC obtained approximately 14-16 hours after the last injection received by the group of mice.
Colony forming cell assays. 150 μl of peripheral blood (PB) was added to Hank's balanced salt solution (HBSS) and mixed with 4 ml of methylcellulose (Stem Cell Technologies) containing 50 ng/ml rm SCF, 10 ng/ml rm IL-3 and 10 ng/ml rh JL-6 and incubated at 37° C. Samples were plated in triplicate in 6 well plates (Falcon) and colonies of more than 50 cells were counted between 7 to 10 days. CFC counts were also determined in spleen (1×10^5) using the same protocol. The results are presented as mean±s.d. A paired student's t-test was used to determine the significance of the difference between means of two groups. Values were considered significant when p<0.05.

[7] = molecular target: epidermal growth factor receptor (EGFR), mouse, wild type, on hematopoietic stem and progenitor cells (mouse) (UniProt Q01279); assay: cell-based or functional assay
[8] = system: EGFR; assay: EGFR expression in BM HSPCs by real time Q-RT-PCR; format: in vivo, mice; conditions: upon G-CSF treatment (FIG. 3a)
From the text: Whole genome expression analysis. RNA from sorted Lin-C-Kit+ cells were obtained with the Qiagen RNA assay micro kit according to the protocol of the manufacturer. RNA was subsequently linear amplified by the Affymetrix core at CCHMC and reverse transcribed with a Nugene Kit according to the manufacturer protocol. Labeled cDNA was then hybridized to and MOE430 array (Affymetrix) and raw expression data collected. Affymetrix .CEL files of the respective microarrays were imported into the statistical programming language R (www.r-project.org) using the affy Bioconductor (www.bioconductor.org) package. The data were then pre-processed (log2-transformed, background corrected, quantile normalized and summarized) using the rma function of the affy package. Affymetrix probes were filtered and re-grouped during summarization according to RefSeq annotation using custom chip description files (.CDF) for the MOE430 array provided by the Molecular and Behavioral Neuroscience Institute of the University of Michigan (Microarray Lab), http://brainarray.mbni.med.umich.edu/Brainarray/Database/CustomCDF/genomic_curated_CDF.asp). The expression level of the EGFR was subsequently confirmed by a Taqman real time PCR assay kit from Applied Biosystems (Assay ID: Mm01187863_g1)

Molecule: C#Cc1cccc(Nc2ncnc3cc(OCCOC)c(OCCOC)cc23)c1 [Erlotinib, reference compound]
- mobilization efficiency of stem cells ([1]; Erlotinib 2.5-10 mg/kg over last 3 days of G-CSF regimen vs G-CSF, competitive transplantation read-out): significantly increased
- level of the GTP bound form of Rac2 [2]: did not detect a significant change
- adhesion of progenitor cells to stroma ([3]; Erlotinib 10 mM (FIG. 7b)): significantly reduced adhesion
- level of the GTP bound form of Rac1 [4]: did not detect a significant change
- Cdc42 activity (GTP-bound form) in BM cells [5]: significant decrease
- mobilization efficiency of progenitor cells ([6]; Erlotinib 2.5-10 mg/kg over last 3 days of G-CSF regimen vs G-CSF (FIG. 5e)): significantly increased

Molecule: EGF: Murine recombinant EGF (epidermal growth factor), activating ligand of EGFR
- reduction of contribution to chimerism 3 months post transplant (stem cells mobilized to PB) ([1]; G-CSF plus EGF (0.8 μg/g) vs G-CSF alone, equal volumes of blood (FIG. 3f)): approx. 5 fold
- level of the GTP bound form of Rac2 [2]: did not detect a significant change
- adhesion of progenitor cells to stroma ([3]; EGF 200 ng/ml (FIG. 7a)): significantly enhanced adhesion
- level of the GTP bound form of Rac1 [4]: did not detect a significant change
- Cdc42 activity (GTP-bound form) in BM cells [5]: significant increase
- reduction of mobilization efficiency of progenitor cells ([6]; G-CSF stimulated animals, single dose EGF 0.8 μg/g on last day of G-CSF regimen (FIG. 3b)): approx. 4 fold
- mobilization efficiency of progenitor cells ([6]; G-CSF stimulated animals, single dose EGF 0.2-1.0 on last injection day of G-CSF regimen (FIG. 3b)): dose-dependent inhibition
- sensitivity to inhibition of mobilization efficiency by EGF ([6]; congenic line 1804 compared to B6 mice, G-CSF and EGF treatment (FIG. 3g)): significantly less sensitive
- spontaneous mobilization ([6]; non-G-CSF treated animals, EGF dose range tested (data not shown)): did not restrict
- mobilization efficiency ([6]; wa2+/- mice, G-CSF plus single injection of EGF on day 5 vs G-CSF alone (FIG. 3d)): unaffected
- mobilization efficiency ([6]; wild type mice, G-CSF plus single injection of EGF on day 5 vs G-CSF alone (FIG. 3c)): significantly reduced

Molecule: Murine recombinant EGF (epidermal growth factor) (from UniProt P01132 977-1029) (ligand)
- mobilization efficiency of progenitor cells in G-CSF stimulated animals (CFC in peripheral blood) (fold reduction) [7]: 4
- stem cell mobilization to PB (donor chimerism 3 months after competitive transplant) [7]: < 5 fold less

B1: G-CSF: huG-CSF (Amgen), granulocyte colony-stimulating factor (protein, UniProt P09919 31-207, looked up)
Granulocyte …: TPLGPASSLPQSFLLKCLEQVRKIQGDGAALQEKLVSECATYKLCHPEELVLLGHSLGIPWAPLSSCPSQALQLAGCLSQLHSGLFLYQGLLQALEGISPELGPTLDTLQLDVADFATTIWQQMEELGMAPALQPTQGAMPAFASAFQRRAGGVLVASHLQSFLEVSYRVLRHLAQP
- EGFR expression levels in BM HSPCs [8]: decreased
- Cdc42 activity in LD-BM cells ([5]; B6 animals, G-CSF treated relative to control non-treated animals (FIG. 7e)): significantly increased
- Cdc42 activity in LD-BM cells ([5]; line 1804 animals upon G-CSF treatment (FIG. 7e)): not being altered
